These results are taken from US8980865B2, “Substituted nucleotide analogs” (priority 2011, dated 2015).

Broadly, the EC50 is the concentration needed to bring the measured effect to its halfway point. Higher therefore signals a less potent agent. As a reminder, the IC50 is the concentration that gives 50% inhibition. Higher therefore signals weaker potency.

The subject of one test is Huh-7 cells containing the self-replicating, subgenomic HCV replicon. Description: HCV replicon assay (luciferase reporter). Type of test: cell-based. As to conditions: Hepatitis C virus, Huh-7, 72 h. How it is done: Huh-7 cells containing the self-replicating, subgenomic HCV replicon with a stable luciferase (LUC) reporter were cultured in Dulbecco's modified Eagle's medium (DMEM) containing 2 mM L-glutamine and supplemented with 10% heat-inactivated fetal bovine serum (FBS), 1% penicillin-streptomyocin, 1% nonessential amino acids, and 0.5 mg/mL G418.
Determination of 50% inhibitory concentration (EC50) of compounds in HCV replicon cells were performed by the following procedure. On the first day, 5,000 HCV replicon cells were plated per well in a 96-well plate. On the following day, test compounds were solubilized in 100% DMSO to 100× the desired final testing concentration. Each compound was then serially diluted (1:3) up to 9 different concentrations. Compounds in 100% DMSO are reduced to 10% DMSO by diluting 1:10 in cell culture media. The compounds were diluted to 10% DMSO with cell culture media, which were used to dose the HCV replicon cells in 96-well format. The final DMSO concentration was 1%. The HCV replicon cells were incubated at 37° C. for 72 hours. At 72 hours, cells were processed when the cells are still subconfluent. Compounds that reduce the LUC signal are determined by Bright-Glo Luciferase Assay (Promega, Madison, Wis.). % Inhibition was determined for each compound concentration in relation to the control cells (untreated HCV replicon) to calculate the EC50.
Compounds of Formula (I) are active in the replicon assay. The antiviral activity of exemplary compounds is shown in Table 3, where ‘A’ indicates an EC50<1 μM, ‘B’ indicates an EC50≧1 μM and <10 μM, and ‘C’ indicates an EC50≧10 μM and <100 μM.
A general note: A replicon is a self-replicating genome or part of one, used to study replication in cells.
In turn, `C#C[C@@]1(O)[C@H](O)[C@@H](COP(=S)(N[C@@H](C)C(=O)OC(C)C)Oc2ccccc2)O[C@H]1n1ccc(=O)[nH]c1=O` (some centres unmarked) [Compound 1a] yielded an EC50 of under 1000 nM.
Same read-out and setting: the figure for `C#C[C@@]1(O)[C@H](O)[C@@H](CO[P@@](=S)(N[C@@H](C)C(=O)OC(C)C)Oc2ccccc2)O[C@H]1n1ccc(=O)[nH]c1=O` [Compound 1aa] is under 1000 nM; for `C#C[C@@]1(O)[C@H](O)[C@@H](CO[P@](=S)(N[C@@H](C)C(=O)OC(C)C)Oc2ccccc2)O[C@H]1n1ccc(=O)[nH]c1=O` [Compound 1ab] it is under 1000 nM; for `C=C[C@@]1(O)[C@H](O)[C@@H](COP(=S)(N[C@@H](C)C(=O)OC(C)C)Oc2ccccc2)O[C@H]1n1ccc(=O)[nH]c1=O` (some centres unmarked) [Compound 2a] it is 1000 to 10000 nM.
Still for that read-out and setting: the same measure for `C#C[C@@]1(O)[C@H](O)[C@@H](COP(=S)(N[C@@H](C)C(=O)OC(C)C)Oc2ccccc2)O[C@H]1n1cnc2c(N)ncnc21` (some centres unmarked) [Compound 4a]: under 1000 nM.
With `C#C[C@@]1(O)[C@H](O)[C@@H](COP(=S)(N[C@@H](C)C(=O)OC(C)C)Oc2ccccc2)O[C@H]1n1cnc2c(=O)[nH]c(N)nc21` (some centres unmarked) [Compound 6a], the EC50 lay within 1000 to 10000 nM.
Still for that read-out and setting: the same measure for `C#C[C@@]1(O)[C@H](O)[C@@H](COP(=S)(N[C@@H](CCSC)C(=O)OC(C)C)Oc2ccccc2)O[C@H]1n1ccc(=O)[nH]c1=O` (some centres unmarked) [Compound 7a]: under 1000 nM; for `C#C[C@@]1(O)[C@H](O)[C@@H](COP(=S)(N[C@H](C(=O)OC(C)C)C(C)C)Oc2ccccc2)O[C@H]1n1ccc(=O)[nH]c1=O` (some centres unmarked) [Compound 8a]: 10000 to 100000 nM.
Turning to `C#C[C@@]1(O)[C@H](O)[C@@H](COP(=S)(N[C@@H](CC(C)C)C(=O)OC(C)C)Oc2ccccc2)O[C@H]1n1ccc(=O)[nH]c1=O` (some centres unmarked) [Compound 9a], the EC50 lay in the range of 1000 to 10000 nM.
On the same count and under the same terms, the figure for `C#C[C@@]1(O)[C@H](O)[C@@H](COP(=S)(N[C@@H](C)C(=O)OC(C)C)Oc2ccc(F)cc2)O[C@H]1n1ccc(=O)[nH]c1=O` (some centres unmarked) [Compound 10a] is under 1000 nM; for `C#C[C@@]1(O)[C@H](O)[C@@H](COP(=S)(N[C@@H](C)C(=O)OC(C)C)Oc2ccc(Cl)cc2)O[C@H]1n1ccc(=O)[nH]c1=O` (some centres unmarked) [Compound 11a] it is under 1000 nM; for `C#C[C@@]1(O)[C@H](O)[C@@H](COP(=S)(N[C@@H](C)C(=O)OC(C)C)Oc2ccc(F)c(Cl)c2)O[C@H]1n1ccc(=O)[nH]c1=O` (some centres unmarked) [Compound 12a] it is under 1000 nM.
Still for that read-out and setting: the same measure for `C#C[C@@]1(O)[C@H](O)[C@@H](COP(=S)(N[C@@H](C)C(=O)OC(C)C)Oc2cccc3ccccc23)O[C@H]1n1ccc(=O)[nH]c1=O` (some centres unmarked) [Compound 13a]: under 1000 nM.
Consider `CC#C[C@@]1(O)[C@H](O)[C@@H](COP(=S)(N[C@@H](C)C(=O)OC(C)C)Oc2ccccc2)O[C@H]1n1ccc(=O)[nH]c1=O` (some centres unmarked) [Compound 14a], for which the EC50 was in the range of 1000 to 10000 nM.
Same read-out and setting: the same measure for `CC(C)OC(=O)[C@H](C)NP(=S)(OC[C@H]1O[C@@H](n2ccc(=O)[nH]c2=O)[C@@](O)(C#CI)[C@@H]1O)Oc1ccccc1` (some centres unmarked) [Compound 15a]: under 1000 nM.
`C#C[C@@]1(F)[C@H](O)[C@@H](COP(=S)(N[C@@H](C)C(=O)OC(C)C)Oc2ccccc2)O[C@H]1n1ccc(=O)[nH]c1=O` (some centres unmarked) [Compound 16a] displayed an EC50 of 1000 to 10000 nM.
On the same count and under the same terms, the same measure for `C#C[C@@]1(O)[C@H](O)[C@@H](COP(=S)(N[C@@H](C)C(=O)OC2CCCCC2)Oc2ccccc2)O[C@H]1n1cnc2c(=O)[nH]c(N)nc21` (some centres unmarked) [Compound 17a]: 1000 to 10000 nM; for `CCC#C[C@@]1(O)[C@H](O)[C@@H](COP(=S)(N[C@@H](C)C(=O)OC(C)C)Oc2ccccc2)O[C@H]1n1ccc(=O)[nH]c1=O` (some centres unmarked) [Compound 18a]: 10000 to 100000 nM; for `C#C[C@@]1(O)[C@H](O)[C@@H](COP(=S)(N[C@@H](CCC)C(=O)OC(C)C)Oc2ccccc2)O[C@H]1n1ccc(=O)[nH]c1=O` (some centres unmarked) [Compound 19a]: under 1000 nM.
Still for that read-out and setting: the figure for `CC(C)C#C[C@@]1(O)[C@H](O)[C@@H](COP(=S)(N[C@@H](C)C(=O)OC(C)C)Oc2ccccc2)O[C@H]1n1ccc(=O)[nH]c1=O` (some centres unmarked) [Compound 20a] is 10000 to 100000 nM; for `C#C[C@@]1(O)[C@H](O)[C@@H](COP(=S)(N[C@@H](CC)C(=O)OC(C)C)Oc2ccccc2)O[C@H]1n1ccc(=O)[nH]c1=O` (some centres unmarked) [Compound 21a] it is under 1000 nM.

The target of another test is NS5B570-Con1 (Delta-21) (Hepatitis C virus genotype 1b, UniProt Q9WMX2). Kind of test: NS5B inhibition assay. It is filed as biochemical, HCV. To be noted: IC50, incorporation of tritiated NMP into acid-insoluble RNA, 2 hours at 37° C. The method, then:
The enzyme activity of NS5B570-Con1 (Delta-21) was measured as an incorporation of tritiated NMP into acid-insoluble RNA products. The complementary IRES (cIRES) RNA sequence was used as a template, corresponding to 377 nucleotides from the 3′-end of HCV (−) strand RNA of the Con-1 strain, with a base content of 21% Ade, 23% Ura, 28% Cyt, and 28% Gua. The cIRES RNA was transcribed in vitro using a T7 transcription kit (Ambion, Inc.) and purified using the Qiagen RNeasy maxi kit. HCV polymerase reactions contained 50 nM NS5B570-Con1, 50 nM cIRES RNA, about 0.5 μCi tritiated NTP, 1 μm of competing cold NTP, 20 mM NaCl, 40 mm Tris-HCl (pH 8.0), 4 mm dithiothreitol, and 4 mm MgCl2. Standard reactions were incubated for 2 hours at 37° C., in the presence of increasing concentration of inhibitor. At the end of the reaction, RNA was precipitated with 10% TCA, and acid-insoluble RNA products were filtered on a size exclusion 96-well plate. After washing of the plate, scintillation liquid was added and radio labeled RNA products were detected according to standard procedures with a Trilux Topcount scintillation counter. The compound concentration at which the enzyme-catalyzed rate was reduced by 50% (IC50) was calculated by fitting the data to a non-linear regression (sigmoidal). The IC50 values were derived from the mean of several independent experiments. […]
For the molecule `C#CC1(O)C(O)C(COP(O)(=S)OP(=O)(O)OP(=O)(O)O)OC1n1ccc(=O)[nH]c1=O` (centres unmarked) [Compound 23a], the IC50 is under 1000 nM.
On the same count and under the same terms, the figure for `C#CC1(O)C(O)C(COP(O)(=S)OP(=O)(O)OP(=O)(O)O)OC1n1ccc(=O)[nH]c1=O` (centres unmarked) [Compound 24a] is under 10000 nM.

In another test the test system is HCV genotype 1b HCV replicon harbored in Huh7 cells. Description: Combination testing in HCV replicon (CalcuSyn CI, MacSynergy II synergy volume). Type of test: cell-based.
Conditions: not given
How it is done: Two or more test compounds were tested in combination with each other using an HCV genotype 1b HCV replicon harbored in Huh7 cells with a stable luciferase (LUC) reporter. Cells were cultured under standard conditions in Dulbecco's modified Eagle's medium (DMEM; Mediatech Inc, Herndon, Va.) containing 10% heat-inactivated fetal bovine serum (FBS; Mediatech Inc, Herndon, Va.) 2 mM L-glutamine, and nonessential amino acids (JRH Biosciences). HCV replicon cells were plated in a 96-well plate at a density of 10^4 cells per well in DMEM with 10% FBS. On the following day, the culture medium was replaced with DMEM containing either no compound as a control, the test compounds serially diluted in the presence of 2% FBS and 0.5% DMSO, or a combination of compound 1a with one or more test compounds serially diluted in the presence of 2% FBS and 0.5% DMSO. The cells were incubated with no compound as a control, with the test compounds, or the combination of compounds for 72 hours. The direct effects of the combination of the test compounds were examined using a luciferase (LUC) based reporter as determined by the Bright-Glo Luciferase Assay (Promega, Madison, Wis.). Dose-response curves were determined for individual compounds and fixed ratio combinations of two or more test compounds.
The effects of test compound combinations were evaluated by two separate methods. In the Loewe additivity model, the experimental replicon data was analyzed by using CalcuSyn (Biosoft, Ferguson, Mo.), a computer program based on the method of Chou and Talalay. The program uses the experimental data to calculate a combination index (CI) value for each experimental combination tested. […]
The second method utilized for evaluating combination effects used a program called MacSynergy II. […] The volumes of synergy (positive volumes) or antagonism (negative volumes) represent the relative quantity of synergism or antagonism per change in the concentrations of the two drugs. […]
`CCC[C@H](NC(=O)[C@@H]1[C@H]2CCC[C@H]2CN1C(=O)[C@@H](NC(=O)[C@@H](NC(=O)c1cnccn1)C1CCCCC1)C(C)(C)C)C(=O)C(=O)NC1CC1` [Compound 1001, Telaprevir]: the “Synergy Volume” value is reported as 104 μM^2%.
On the same count and under the same terms, the same measure for `CC1CCC(C(=O)N(c2cc(C#CC(C)(C)C)sc2C(=O)O)C2CCC(O)CC2)CC1` (centres unmarked) [Compound 3003]: 32 μM^2%.

The same test, now with this note: combination of compound 1a with the listed compound; 72 hours; MacSynergy II, Bliss independence; 25-100 synergistic, >100 strong synergistic.
For the molecule `CC(C)OC(=O)C(C)NP(=S)(OC[C@H]1O[C@@H](n2ccc(=O)[nH]c2=O)[C@](C)(O)[C@@H]1O)Oc1ccccc1` (some centres unmarked) [Compound 6002], the “Synergy Volume” value is reported as 29 μM^2%.
